Measured values reported in patent US8173682B2, “Substituted pyridones as inhibitors of poly(ADP-ribose) polymerase (PARP)” (Aventis Pharmaceuticals Inc., priority 2004, dated 2012).
Counter-ions that a name gives are not always drawn.

target: T1, recombinant human PARP (PARP1) (Homo sapiens, UniProt P09874); assay: PARP enzyme assay, Method A (radioactivity or 'ELISA' enzyme assay with partially purified enzyme); format: biochemical; settings: recombinant human PARP preparation, radioactive or ELISA enzyme assay
T1 construct: Full length human PARP (PARP1) is assembled from PCR fragments; His6 tag with TEV site, from the pFastBac-HTb vector (own knowledge of the vector); made in house; host or cells: insect cells, baculovirus (Bac-to-Bac, Gibco-BRL)
T1 sequence (P09874 whole entry, the tested form may be a part): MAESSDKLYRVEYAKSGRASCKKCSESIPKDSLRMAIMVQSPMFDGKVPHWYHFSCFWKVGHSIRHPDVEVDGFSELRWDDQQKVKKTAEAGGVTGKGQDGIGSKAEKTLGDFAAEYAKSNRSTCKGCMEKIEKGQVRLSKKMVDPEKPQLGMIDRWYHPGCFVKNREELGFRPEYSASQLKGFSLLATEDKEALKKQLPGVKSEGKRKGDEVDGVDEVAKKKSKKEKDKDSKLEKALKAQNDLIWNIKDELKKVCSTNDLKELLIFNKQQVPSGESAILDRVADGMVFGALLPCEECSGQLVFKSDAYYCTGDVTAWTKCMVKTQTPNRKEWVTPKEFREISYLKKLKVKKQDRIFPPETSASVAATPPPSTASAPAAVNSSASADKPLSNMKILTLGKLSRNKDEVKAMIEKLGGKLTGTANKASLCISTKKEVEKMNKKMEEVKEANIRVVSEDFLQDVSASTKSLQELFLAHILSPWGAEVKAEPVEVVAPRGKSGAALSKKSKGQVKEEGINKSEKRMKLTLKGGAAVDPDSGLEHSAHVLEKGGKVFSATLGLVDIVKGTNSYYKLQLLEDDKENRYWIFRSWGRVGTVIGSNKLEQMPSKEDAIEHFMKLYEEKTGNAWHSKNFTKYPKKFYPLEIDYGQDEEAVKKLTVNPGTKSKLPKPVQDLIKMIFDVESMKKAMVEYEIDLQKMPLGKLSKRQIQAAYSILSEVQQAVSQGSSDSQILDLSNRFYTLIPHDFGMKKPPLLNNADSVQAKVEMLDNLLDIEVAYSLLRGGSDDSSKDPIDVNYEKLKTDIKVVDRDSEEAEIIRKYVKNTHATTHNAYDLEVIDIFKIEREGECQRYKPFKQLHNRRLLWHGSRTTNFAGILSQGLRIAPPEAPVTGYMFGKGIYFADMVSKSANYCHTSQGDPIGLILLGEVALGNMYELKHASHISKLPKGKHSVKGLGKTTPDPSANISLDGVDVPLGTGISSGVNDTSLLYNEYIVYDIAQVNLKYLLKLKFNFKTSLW
How it was run: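 Partially purified recombinant full-length His-tagged human PARP1, baculovirus-expressed. Radioactive format: 100 μg/mL sonicated DNA, 100 μg/mL histones, 100 mM Tris pH 8.0, 10 mM MgCl2, 200 μM labeled NAD, 10 min 37 °C or 60 min RT, TCA-precipitated counts. ELISA format: 250 μM NAD plus biotin-NAD on histone plates, TMB A450.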

Point of comparison: `CCc1cc(-c2ccc(S(=O)(=O)N3CCC(n4ccnc4)CC3)s2)c(C)[nH]c1=O` [Example 79, 3-Ethyl-5-[5-(4-imidazol-1-yl)piperidine-1-sulfonyl)thiophen-2-yl]-6-methyl-1H-pyridin-2-one hydrochloride], IC50 0.45 µM. Against it:
- CCc1cc(-c2ccc(CN3CCC[C@H]3COC)s2)c(C)[nH]c1=O [Example 191, 3-Ethyl-5-{5-[(S)-2-methoxymethylpyrrolidin-1-ylmethyl]thiophen-2-yl}-6-methyl-1H-pyridin-2-one hydrochloride] — 1.8-fold higher, 0.8 µM
- CCc1cc(-c2ccc(S(=O)(=O)N3CCC(N4CCCCC4)CC3)o2)c(C)[nH]c1=O [Example 51, 3-Ethyl-6-methyl-5-[5-(4-piperidin-1-yl)piperidine-1-sulfonylfuran-2-yl]-1H-pyridin-2-one hydrochloride] — 2-fold lower, 0.22 µM
- CCc1cc(-c2ccc(CNCc3cccc(Cl)c3)s2)c(C)[nH]c1=O [Example 164, 5-{5-[(3-Chlorobenzylamino)methyl]thiophen-2-y}]-3-ethyl-6-methyl-1H-pyridin-2-one hydrochloride] — 1.5-fold higher, 0.69 µM
- CCc1cc(-c2ccc(CN3CCC4(CC3)OCCO4)s2)c(C)[nH]c1=O [Example 149, 5-[5-(1,4-Dioxa-8-aza-spiro[4,5]dec-8-ylmethy)-thiophen-2-yl)-3-ethyl-6-methyl-1H-pyridin-2-one hydrochloride] — 1.8-fold higher, 0.79 µM
- CCc1cc(-c2ccc(S(=O)(=O)NCCOC)s2)c(C)[nH]c1=O [Example 33, 5-(5-Ethyl-2-methyl-6-oxo-1,6-dihydropyridin-3-yl)thiophene-2-sulfonic acid (2-methoxyethyl)amide] — 23-fold higher, 10.5 µM
- CCc1cc(-c2ccc(CN(C)C3CCN(C)C3)s2)c(C)[nH]c1=O (centres unmarked) [Example 133, 5-{5-[Methyl(1-methylpyrrolidin-3-yl)amino-methyl]thiophen-2-yl}-3-ethyl-6-methyl-1H-pyridin-2-one dihydrochloride] — 6.2-fold higher, 2.8 µM
- CCc1cc(-c2ccc(CN3CCC(c4ccccc4)CC3)s2)c(C)[nH]c1=O [Example 184, 3-Ethyl-6-methyl-5-[5-(4-phenylpiperidin-1-ylmethyl)thiophen-2-yl]-1H-pyridin-2-one hydrochloride] — 6-fold higher, 2.7 µM
- CCc1cc(-c2ccc(CNCc3ccccc3F)s2)c(C)[nH]c1=O [Example 192, 3-Ethyl-5-{5-[(2-fluoro-benzylamino)-methyl]-thiophen-2-yl}-6-methyl-1H-pyridin-2-one hydrochloride] — 1.7-fold lower, 0.26 µM
- CCc1cc(-c2ccc(S(=O)(=O)N3CCN(C)CC3)s2)c(C)[nH]c1=O [Example 92, 3-Ethyl-6-methyl-5-[5-(4-methylpiperazine-1-sulfonyl)thiophen-2-yl]-1H-pyridin-2-one] — 2.9-fold higher, 1.3 µM
- CCc1cc(-c2ccc(S(=O)(=O)N(C)C3CCN(C)C3)s2)c(C)[nH]c1=O (centres unmarked) [Example 81, 5-[5-Ethyl-2-methyl-6-oxo-1,6-dihydropyridin-3-yl]thiophene-2-sulfonic acid methyl (1-methylpyrrolidin-3-yl)amide hydrochloride] — within 1.5-fold, 0.54 µM
- CCc1cc(-c2ccc(S(=O)(=O)NCCOc3ccccc3)s2)c(C)[nH]c1=O [Example 98, 5-(5-Ethyl-2-methyl-6-oxo-1,6-dihydropyridin-3-yl)-thiophene-2-sulfonic acid (2-phenoxyethyl)amide] — within 1.5-fold, 0.41 µM
- CCc1cc(-c2ccc(S(=O)(=O)NCCNc3ccccc3)s2)c(C)[nH]c1=O [Example 32, 5-(5-Ethyl-2-methyl-6-oxo-1,6-dihydropyridin-3-yl)thiophene-2-sulfonic acid 2-phenylaminoethylamide hydrochloride] — 6.4-fold higher, 2.9 µM
- CCc1cc(-c2ccc(S(=O)(=O)NCc3cccnc3)o2)c(C)[nH]c1=O [Example 55, 5-(5-Ethyl-2-methyl-6-oxo-1,6-dihydropyridin-3-yl)furan-2-sulfonic acid (pyridin-3-yl)methylamide hydrochloride] — 2-fold lower, 0.22 µM
- CCc1cc(-c2ccc(S(=O)(=O)NCCN3CCCCC3)s2)c(C)[nH]c1=O [Example 69, 5-[5-Ethyl-2-methyl-6-oxo-1,6-dihydropyridin-3-yl]thiophene-2-sulfonic acid (2-piperidin-1-yl)ethylamide hydrochloride] — 1.7-fold lower, 0.26 µM
- CCc1cc(-c2ncno2)c(C)[nH]c1=O [Example 18, 3-Ethyl-6-methyl-5-(1,2,4-oxadiazol-5-yl)-1H-pyridin-2-one] — within 1.5-fold, 0.65 µM
- CCc1cc(-c2ccc(CNCCC3=CCCCC3)s2)c(C)[nH]c1=O [Example 144, 5-{5-[(2-Cyclohex-1-enyl-ethylamino)-methyl]thiophen-2-yl}-3-ethyl-6-methyl-1H-pyridin-2-one hydrochloride] — within 1.5-fold, 0.62 µM
- CCc1cc(-c2ccc(S(=O)(=O)NCC3CCCN3CC)s2)c(C)[nH]c1=O (centres unmarked) [Example 102, 5-(5-Ethyl-2-methyl-6-oxo-1,6-dihydropyridin-3-yl)-thiophene-2-sulfonic acid (1-ethyl-pyrrolidin-2-ylmethyl)amide hydrochloride] — within 1.5-fold, 0.49 µM
- CCc1cc(-c2ccc(S(=O)(=O)NCCCN3CCN(C)CC3)s2)c(C)[nH]c1=O [Example 65, 5-(5-Ethyl-2-methyl-6-oxo-1,6-dihydropyridin-3-yl)thiophene-2-sulfonic acid 3-(4-methylpiperazin-1-yl)propylamide dihydrochloride] — within 1.5-fold, 0.67 µM
- CCc1cc(-c2ccc(S(=O)(=O)NCCN3CCOCC3)s2)c(C)[nH]c1=O [Example 38, 5-(5-Ethyl-2-methyl-6-oxo-1,6-dihydropyridin-3-yl)thiophene-2-sulfonic acid (2-morpholin-4-yl)ethylamide hydrochloride] — 1.7-fold higher, 0.77 µM
- CCc1cc(-c2ncon2)c(C)[nH]c1=O [Example 23, 3-Ethyl-6-methyl-5-(1,2,4-oxadiazol-3-yl)-1H-pyridin-2-one] — within 1.5-fold, 0.67 µM
- CCc1cc(-c2ccc(S(=O)(=O)NC3CCN(Cc4ccc(Cl)cc4)CC3)s2)c(C)[nH]c1=O [Example 76, 5-[5-Ethyl-2-methyl-6-oxo-1,6-dihydropyridin-3-yl]-thiophene-2-sulfonic acid 1-(4-chlorobenzyl)piperidin-4-yl]amide hydrochloride] — 2-fold lower, 0.23 µM
- CCc1cc(-c2ccc(CNCc3nccn3C)s2)c(C)[nH]c1=O [Example 161, 3-Ethyl-6-methyl-5-(5-{[(1-methyl-1H-imidazol-2-yl)methyl)amino]methyl}-thiophen-2-yl)-1H-pyridin-2-one dihydrochloride] — 2.9-fold higher, 1.3 µM
- CCc1cc(-c2ccc(CNc3cc(C(=O)OC)n(C)c3)s2)c(C)[nH]c1=O [Example 130, 4-{[5-(5-Ethyl-2-methyl-6-oxo-1,6-dihydro-pyridin-3-yl)-thiophen-2-ylmethyl]-amino}-1-methyl-1H-pyrrole-2-carboxylic acid methyl ester dihydrochloride] — 2.7-fold higher, 1.2 µM
- CCc1cc(-c2ccc(S(=O)(=O)NCCc3cccnc3)o2)c(C)[nH]c1=O [Example 48, 5-(5-Ethyl-2-methyl-6-oxo-1,6-dihydropyridin-3-yl)furan-2-sulfonic acid (2-pyridin-3-yl)ethylamide hydrochloride] — within 1.5-fold, 0.36 µM
- CCc1cc(-c2ccc(CNC3CCC3)s2)c(C)[nH]c1=O [Example 137, 5-(5-Cyclobutylaminomethyl-thiophen-2-yl)-3-ethyl-6-methyl-1H-pyridin-2-one hydrochloride] — within 1.5-fold, 0.52 µM
